Measured values published in US7569603B2, “Ester compound and its use in pest control” (Sumitomo Chemical Company, Limited, priority 2006, dated 2009).

System: Adult houseflies
Assay: Knock-down test on adult houseflies by spraying oil solution in a cubic chamber
Format: in vivo, housefly (Musca domestica)
Conditions: 0.7 ml of 0.00625% oil solution sprayed into 70 cm cubic chamber; 5 male and 5 female adult houseflies; counted up to 10 minutes after spraying
Protocol: A solution of 0.00625 part of the present compound (1) in 10 parts of dichloromethane was mixed with 89.99375 parts of deodorized kerosene to obtain a 0.00625% oil solution.
Adult houseflies (5 males and 5 females) were left in a cubic chamber (70 cm at each side). Into the chamber, 0.7 ml of 0.00625% oil solution of the present compound (1) prepared above was sprayed with a spray gun at a pressure of 8.8×10^4 Pa from a small window on the side of the chamber. Then, up to 10 minutes after spraying, the number of knocked-down insects was counted with time. From the results, a time required for knocking down 90% of the tested insects (KT90) was calculated.
In addition, the same test was carried out that 5-benzyl-3-furylmethyl (1R)-cis-2,2-dimethyl-3-((E)-3-ethoxy-3-oxo-1-propenyl)cyclopropanecarboxylate represented by the formula:
[drawing 6] (hereinafter, referred to as the comparative compound (A)), which is the compound described in GB-A-1413491 as compound P19/2; and 3-phenylbenzyl (1R)-cis-2,2-dimethyl-3-((E)-3-ethoxy-2-fluoro-3-oxo-1-propenyl)cyclopropanecarboxylate represented by the formula:
[drawing 7] (hereinafter, referred to as the comparative compound (B)), which is the compound described in U.S. Pat. No. 4,489,093 as example 12 were used as comparative compounds (repeated twice).

Structure (SMILES)	KT90 (time required for knocking down 90% of the tested insects) [min]
CCOC(=O)/C=C/[C@H]1[C@@H](C(=O)OCc2coc(Cc3ccccc3)c2)C1(C)C [Comparative compound (A), 5-benzyl-3-furylmethyl (1R)-cis-2,2-dimethyl-3-((E)-3-ethoxy-3-oxo-1-propenyl)cyclopropanecarboxylate]	8.0
CCOC(=O)/C(F)=C\[C@H]1[C@@H](C(=O)OCc2cccc(-c3ccccc3)c2)C1(C)C [Comparative compound (B), 3-phenylbenzyl (1R)-cis-2,2-dimethyl-3-((E)-3-ethoxy-2-fluoro-3-oxo-1-propenyl)cyclopropanecarboxylate]	8.9
CCOC(=O)/C(F)=C\[C@H]1[C@@H](C(=O)OCc2coc(Cc3ccccc3)c2)C1(C)C [Present compound (1), 5-benzyl-3-furylmethyl (1R)-cis-2,2-dimethyl-3-((E)-3-ethoxy-2-fluoro-3-oxo-1-propenyl)cyclopropanecarboxylate]	2.9
